This note sets out measurements from patent US7361665B2, “Inhibitors of c-Jun N-terminal kinases (JNK) and other protein kinases” (Vertex Pharmaceuticals Incorporated, priority 2002, dated 2008).

In the test the target is T1, JNK3 (Homo sapiens, UniProt P53779).
T1 construct: One such construct encodes amino acid residues Ser40-Glu402 of JNK3α1 and is preceded by Met and Gly residues; Met-Gly dipeptide (initiation Met plus Gly added for the NcoI site) (N); made in house; host or cells: E. coli BL21 (DE3)
T1 sequence (P53779 40-402): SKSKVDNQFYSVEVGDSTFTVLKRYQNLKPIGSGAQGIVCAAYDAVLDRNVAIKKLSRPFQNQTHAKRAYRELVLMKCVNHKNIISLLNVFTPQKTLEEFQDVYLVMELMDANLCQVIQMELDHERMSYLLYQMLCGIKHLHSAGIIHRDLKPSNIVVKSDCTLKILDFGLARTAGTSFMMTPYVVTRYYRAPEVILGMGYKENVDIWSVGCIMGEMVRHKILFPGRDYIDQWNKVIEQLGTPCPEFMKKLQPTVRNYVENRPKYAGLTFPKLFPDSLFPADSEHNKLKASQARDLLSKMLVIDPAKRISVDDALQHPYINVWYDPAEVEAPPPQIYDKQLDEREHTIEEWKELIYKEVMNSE
Nature of the test: JNK inhibition assay (spectrophotometric coupled-enzyme assay). It counts as biochemical. As to conditions: activated JNK3 10 nM, 10 μM ATP, 30° C.; read-out: JNK3 Activity (Ki rating). The text has this: A BLAST search of the EST database using the published JNK3α1 cDNA as a query identified an EST clone (#632588) that contained the entire coding sequence for human JNK3α1. Polymerase chain reactions (PCR) using pfu polymerase (Strategene) were used to introduce restriction sites into the cDNA for cloning into the pET-15B expression vector at the NcoI and BamHI sites. The protein was expressed in E. coli. Due to the poor solubility of the expressed full-length protein (Met 1-Gln 422), an N-terminally truncated protein starting at Ser residue at position 40 (Ser 40) was produced. This truncation corresponds to Ser 2 of JNK1 and JNK2 proteins, and is preceded by a methionine (initiation) and a glycine residue. The glycine residue was added in order to introduce an NcoI site for cloning into the expression vector. In addition, systematic C-terminal truncations were performed by PCR to identify a construct that give rise to diffraction-quality crystals. One such construct encodes amino acid residues Ser40-Glu402 of JNK3α1 and is preceded by Met and Gly residues.
Five mg of JNK3 was diluted to 0.5 mg/ml in 50 mM HEPES buffer, pH 7.5, containing 100 mM NaCl, 5 mM DTT, 20 mM MgCl2 and 1 mM ATP. GST-MKK7(DD) was added at a molar ratio of 1:2.5 GST-MKK7:JNK3. After incubation for 30 minutes at 25° C., the reaction mixture was concentrated 5-fold by ultrafiltration in a Centriprep-30 (Amicon, Beverly, Mass.), diluted to 10 ml and an additional 1 mM ATP added. This procedure was repeated three times to remove ADP and replenish ATP. The final addition of ATP was 5 mM and the mixture incubated overnight at 4° C.
The activated JNK3/GST-MKK7(DD) reaction mixture was exchanged into 50 mM HEPES buffer, pH 7.5, containing 5 mM DTT and 5% glycerol (w/v) by dialysis or ultrafiltration. The reaction mixture was adjusted to 1.1 M potassium phosphate, pH 7.5, and purified by hydrophobic interaction chromatography (at 25° C.) using a Rainin Hydropore column. […] Activated JNK3 (i.e. doubly phosphorylated JNK3) was stored at −70° C. at 0.25-1 mg/ml.
Compounds were assayed for the inhibition of JNK3 by a spectrophotometric coupled-enzyme assay. In this assay, a fixed concentration of activated JNK3 (10 nM) was incubated with various concentrations of a potential inhibitor dissolved in DMSO for 10 minutes at 30° C. in a buffer containing 0.1 M HEPES buffer, pH 7.5, containing 10 mM MgCl2, 2.5 mM phosphoenolpyruvate, 200 μM NADH, 150 μg/mL pyruvate kinase, 50 μg/mL lactate dehydrogenase, and 200 μM EGF receptor peptide. The EGF receptor peptide has the sequence […] (SEQ ID NO: 3), and is a phosphoryl acceptor in the JNK3-catalyzed kinase reaction. The reaction was initiated by the addition of 10 μM ATP and the assay plate is inserted into the spectrophotometer's assay plate compartment that was maintained at 30° C. The decrease of absorbance at 340 nm was monitored as a function of time. The rate data as a function of inhibitor concentration was fitted to competitive inhibition kinetic model to determine the Ki.
The compound numbers correspond to the compound numbers in Tables 1-3.
With `COc1cccc(Nc2nccc(-c3cnc(-c4cccnc4)n3C)n2)c1` [IIa-18], the inhibitory constant (Ki) (commonly the equilibrium dissociation constant of an inhibitor or competing ligand from its target) was 100 to 1000 nM.

As for `COCn1c(-c2ccnc(Nc3ccccc3)n2)cnc1-c1ccccc1` [IIa-12], the Ki was above 1000 nM.

For `c1ccc(COc2cccc(Nc3nccc(-c4cnc(-c5ccccc5)o4)n3)c2)cc1` [IIb-6], the Ki lay in the range of 100 to 1000 nM.

As to `O=[N+]([O-])c1ccc(Nc2nccc(-c3cnc(Cc4c(Cl)cccc4Cl)[nH]3)n2)cc1` [IIa-30], the Ki lay within 100 to 1000 nM.

Turning to `COCn1c(-c2ccnc(Nc3cccc(OCc4ccccc4)c3)n2)cnc1-c1ccccc1` [IIa-17], the Ki was above 1000 nM.

For `O=[N+]([O-])c1ccc(Nc2nccc(-c3cnc(-c4ccccc4)o3)n2)cc1` [IIb-7], the Ki lay within 100 to 1000 nM.

With `Clc1cccc(Cl)c1Cc1ncc(-c2ccnc(Nc3ccccc3)n2)[nH]1` [IIa-28], the inhibition constant (Ki) lay in the range of 100 to 1000 nM.

Regarding `COCn1c(-c2ccnc(Nc3ccc([N+](=O)[O-])cc3)n2)cnc1-c1ccccc1` [IIa-13], the Ki is above 1000 nM.

On to `Cc1nc(-c2cccs2)sc1-c1ccnc(Nc2ccc([N+](=O)[O-])cc2)n1` [IIc-25], for which the Ki was above 1000 nM.

As for `Fc1ccc(Nc2nccc(-c3cnc(-c4ccccc4)o3)n2)cc1` [IIb-2], the inhibition constant Ki lay within 100 to 1000 nM.

For `c1ccc(Nc2nccc(-c3cnc(-c4ccccc4)o3)n2)cc1` [IIb-5], the Ki was 100 to 1000 nM.

With `Clc1ccc(Nc2nccc(-c3cnc(-c4ccccc4)o3)n2)cc1` [IIb-1, (4-Chloro-phenyl)-[4-(2-phenyl-oxazol-5-yl)-pyrimidin-2yl]-amine], the Ki was above 1000 nM.

With `Clc1cccc(Cl)c1Cc1ncc(-c2ccnc(Nc3cccc(Br)c3)n2)[nH]1` [IIa-27], the inhibitory constant (Ki) was 100 to 1000 nM.

Regarding `COCn1c(-c2ccnc(Nc3ccc(F)cc3)n2)cnc1-c1ccccc1` [IIa-11], the Ki is above 1000 nM.

With `COCn1c(-c2ccnc(Nc3cc(OC)cc(OC)c3)n2)cnc1-c1ccccc1` [IIa-15], the inhibition constant (Ki) was above 1000 nM.

For `COc1cccc(Nc2nccc(-c3cnc(Cc4c(Cl)cccc4Cl)[nH]3)n2)c1` [IIa-25], the inhibition constant (Ki) was below 100 nM.

For the molecule `Clc1ccc(Nc2nccc(-c3cnc(Cc4c(Cl)cccc4Cl)[nH]3)n2)cn1` [IIa-32], the inhibition constant (Ki) was 100 to 1000 nM.

Regarding `Cc1nc(-c2cccs2)sc1-c1ccnc(Nc2ccc(Cl)cc2)n1` [IIc-24], the Ki is above 1000 nM.

Turning to `COC(=O)c1cccc(Nc2nccc(-c3cnc(Cc4c(Cl)cccc4Cl)[nH]3)n2)c1` [IIa-31], the Ki fell in the range of 100 to 1000 nM.

As to `Cn1c(-c2ccnc(Nc3cccc(Br)c3)n2)cnc1-c1cccnc1` [IIa-20], the Ki was in the range of 100 to 1000 nM.

With `Cn1c(-c2ccnc(Nc3ccc([N+](=O)[O-])cc3)n2)cnc1-c1cccnc1` [IIa-21], the inhibitory constant (Ki) was in the range of 100 to 1000 nM.

As to `COC(=O)c1cccc(Nc2nccc(-c3cnc(-c4cccnc4)n3C)n2)c1` [IIa-22], the Ki lay in the range of 100 to 1000 nM.

As for `Clc1ccc(Nc2nccc(-c3cnc(Cc4c(Cl)cccc4Cl)[nH]3)n2)cc1` [IIa-23], the Ki lay in the range of 100 to 1000 nM.

Turning to `COCn1c(-c2ccnc(Nc3cccc(Br)c3)n2)cnc1-c1ccccc1` [IIa-16], the Ki was above 1000 nM.

Regarding `COc1cc(Nc2nccc(-c3cnc(Cc4c(Cl)cccc4Cl)[nH]3)n2)cc(OC)c1` [IIa-26], the Ki lay in the range of 100 to 1000 nM.

Turning to `COc1cccc(Nc2nccc(-c3cnc(-c4ccccc4)o3)n2)c1` [IIb-3], the Ki was 100 to 1000 nM.

Regarding `COc1cc(Nc2nccc(-c3cnc(-c4ccccc4)o3)n2)cc(OC)c1` [IIb-4], the Ki is 100 to 1000 nM.

Turning to `Clc1cccc(Cl)c1Cc1ncc(-c2ccnc(Nc3cccc(OCc4ccccc4)c3)n2)[nH]1` [IIa-29], the Ki was 100 to 1000 nM.

In the case of `COc1cc(Nc2nccc(-c3cnc(-c4cccnc4)n3C)n2)cc(OC)c1` [IIa-19], the inhibition constant Ki lay in the range of 100 to 1000 nM.
